Like-named read-outs stand apart in the source and are kept apart here.
Key:
[1] = test system: human prostate cancer cells LNCaP; assay: Cell viability inhibition assay (CTG) on LNCaP cells in presence of DHT; type: cell-based; conditions: Homo sapiens, 120 h, read-out: Inhibitory activity against human prostate cancer cell LNCaP IC50
Description: Human prostate cancer cells LNCaP and human prostate cancer cells 22Rvl are present in patients with prostate cancer. An androgen, DHT, is able to promote the growth of human prostate cancer cells LNCaP. Using the cell model described above was intended to study the inhibitory effects of the compounds of the present disclosure on the growth of human prostate cancer cells (human prostate cancer cells LNCaP and human prostate cancer cells 22Rvl) in the presence or absence of DHT.
The medium in the culture dish was discarded, and 5 mL of trypsin was added for digestion for about 3 mins. The digestion was stopped by adding 10 mL of a fresh medium. The cells were fully pipetted and transferred to a 15 mL centrifuge tube, and the cells were collected by centrifugation at 1000 rpm for 5 mins. The cells collected by centrifugation were resuspended in 11 mL of a fresh medium. 1 mL of the cells was taken and counted, and the cell viability was detected. The cell density was adjusted to 1×10^4 cells/mL by adding an appropriate amount of the medium. The cells were seeded in a 96-well plate at 200 µL/well, and the plate was incubated overnight in a cell incubator.
After the cells were attached to the well, for the human prostate cancer cells LNCaP group, test compounds (0.1 μM, 0.3 μM, 1 μM, 3 μM, 10 μM, and 30 μM) and DHT (1 nM, inducing the expression of AR) were added to the 96-well plate, and the plate was incubated for another 5 days; for the human prostate cancer cells 22Rvl group, test compounds (0.1 μM, 0.3 μM, 1 μM, 3 μM, 10 μM, and 30 μM) were added to the 96-well plate, and the plate was incubated for another 5 days. […] The 96-well plate was equilibrated at room temperature for 30 mins. The cell viability was detected by using a CTG method. Before detection, CellTiter-Glo® Buffer and a substrate thereof (collectively called CTG reagent) were thawed and equilibrated to room temperature. Then, […] of Buffer was gently mixed with the substrate to form a homogeneous solution. The homogeneous solution was added to the 96-well plate at 100 µL/well, and the 96-well plate was incubated on a shaker for 15 mins. The fluorescence value in each well was then detected. The detection method for the fluorescence value in each well was as follows: after adding the CTG reagent, luminescence detection (integration time: 500 ms) was performed by using a correspondingly equipped multi-mode microplate reader (M200Pro, TECAN, Switzerland) according to the supplier's manual to quantify the effect of the inhibitor on the cell viability. For data analysis, an assay background value was subtracted from all data points, which was determined in wells containing the medium but no cells. Data were processed using the XLfit software (XLfit 5.2., IDBS, UK), and IC50 values of the test compounds were calculated.

[2] = test system: alopecia mouse model; assay: Hair growth promotion test in mice with alopecia (testosterone propionate model); type: in vivo, C57BL/6 mice; conditions: for growth of hairs and hair follicles compared to positive control drug group (in words): daily dose 1.5 mg, FIG. 3; for Number of hair follicles (X ± SD): day 18, per field (×100), HE staining, topical once daily for 16 days; for Hair length (X ± SD): day 18, topical once daily for 16 days, testosterone propionate alopecia mice
Method: The compounds of the present disclosure were tested for their hair growth-promoting effects on an alopecia mouse model.
C57BL/6 mice (purchased from SPF (Beijing) Biotechnology Co., Ltd., production license No.: SCXK (Beijing) 2019-0010), test compounds (prepared by the method of the present disclosure), rosin (Shanghai YuanYe Bio-Technology Co., Ltd., lot No. Y18M10C83144), liquid paraffin (Shanghai YuanYe Bio-Technology Co., Ltd., lot No.: Z22S11Y125555), chloral hydrate (Sinopharm Chemical Reagent Co., Ltd., lot No.: 20190823, a 2% chloral hydrate solution was prepared by using a 0.9% sodium chloride solution before use), testosterone propionate (Aladdin Reagent (Shanghai) Co., Ltd., lot No.: T101368, a 0.5% testosterone propionate solution was prepared by using an a soybean oil for injection before use), soybean oil for injection (Liaoning Shinsun Pharmaceutical Co., Ltd., lot No.: NMPA Approval No. H21024303), paraformaldehyde (Xilong Scientific Co., Ltd., lot No.: 1705022), a 0.9% sodium chloride solution (Jiangsu Huai'an Shuanghe Pharmaceutical Co., Ltd., lot No.: 210322-3C), an electronic balance (Beijing Sartorius Scientific Instruments Co., Ltd., model: BS224 S; GZX-9140MBE), and a digital display electric heating constant temperature air blast drying oven (Shanghai Boxun Medical Biological Instrument Corp.).
8-week-old male C57BL/6 mice were selected and injected with 2% chloral hydrate (400 mg/kg) for anesthesia. Equal amounts of rosin and paraffin were weighed out, heated, and mixed well. The mixture was applied on the front back of the mice in an area of about 2 cm×2.5 cm. After the mixture was cooled to be hard, the solidified hair was torn off by tweezers gently.
Qualified C57BL/6 mice (3 mice per group) were randomly assigned to a blank group, a model group, a positive control drug group (7.5% clascoterone group), and test groups (including 0.3% compound 8 group and 0.3% compound 7 group). Mice in the blank group were coated with 0.1 mL of normal saline in the depilated area every morning (1 time a day for 17 consecutive days); mice in the model group were coated with 0.1 mL of 0.5% testosterone propionate solution in the depilated area every morning (1 time a day, starting on the first day, for 17 consecutive days), and with 0.5 mL of the control solvent in the depilated area every afternoon (1 time a day, starting on the second day, for 16 consecutive days); mice in the positive control drug group were coated with 0.1 mL of 0.5% testosterone propionate solution in the depilated area every morning (1 time a day, starting on the first day, for 17 consecutive days), and with 0.5 mL of 7.5% clascoterone solution in the depilated area every afternoon (1 time a day, starting on the second day, for 16 consecutive days); and mice in the test groups were coated with 0.1 mL of 0.5% testosterone propionate solution in the depilated area every morning (1 time a day, starting on the first day, for 17 consecutive days), and with 0.5 mL of 0.3% test compound solution in the depilated area every afternoon (1 time a day, starting on the second day, for 16 consecutive days). The formula of the test compound solution was 0.3% test compound, 40% DMSO, 30% ethanol, and the balance of water; the formula of the control solvent was 40% DMSO, 30% ethanol, and the balance of water; the formula of the positive control drug group was 7.5% clascoterone, 40% DMSO, 30% ethanol, and the balance of water. The hair regrowth in the depilated area of the mice in each group was observed and photographed 16 days after the start of topical administration of the test compound solution.
On day 18 of the test, 5 new hairs were pulled out from the back depilated area of each mouse in each group, the lengths of the hairs were measured using a vernier caliper, and the lengths of the hairs of the mice in each group were counted. The skin of the depilated area of the mice in each group was cut out, and hematoxylin-eosin staining (HE staining) was performed. […]

SMILES | IC50 [1] | growth of hairs and hair follicles compared to positive control drug group (in words) [2] | Number of hair follicles (X ± SD) [2] | Hair length (X ± SD) [2] | IC50 ([1]; 1 nM DHT, 5 days, CTG)
COc1ccc(/C=C/C(=O)C2(C(=O)/C=C/c3ccc(OC)c(OC)c3)CCC(=O)CC2)cc1OC [Compound 7] | 830 nM | better than that of the positive control drug group | 95.600 ± 26.091 | 3.850 ± 0.009 mm | –
COc1ccc(/C=C/C(=O)C2(C(=O)/C=C/c3ccc(OC)c(OC)c3)CCC(F)(F)CC2)cc1OC [Compound 8] | – | better than that of the positive control drug group | 116.733 ± 35.809 | 4.493 ± 0.024 mm | 610 nM

— patent publication US20250295609A1, “COMPOUND HAVING ANTI-ANDROGEN RECEPTOR ACTIVITY, AND USE THEREOF” (NANJING MINOVA PHARMACEUTICAL CO., LTD., priority 2022, published 2025)
